Measured values taken from patent publication US8921546B2, “Imidazolothiazole compounds for the treatment of disease” (Ambit Biosciences Corporation, priority 2006, dated 2014).
Counter-ions that a name gives are not always drawn. Like-named read-outs stand apart in the source and are kept apart here.

Assays:
[1] = target: T1, FLT3 (Homo sapiens, UniProt P36888); test: Binding constant (Kd) measurement, phage-displayed kinase competition binding assay, FLT3
T1 construct: made in house
T1 sequence (P36888 27-993): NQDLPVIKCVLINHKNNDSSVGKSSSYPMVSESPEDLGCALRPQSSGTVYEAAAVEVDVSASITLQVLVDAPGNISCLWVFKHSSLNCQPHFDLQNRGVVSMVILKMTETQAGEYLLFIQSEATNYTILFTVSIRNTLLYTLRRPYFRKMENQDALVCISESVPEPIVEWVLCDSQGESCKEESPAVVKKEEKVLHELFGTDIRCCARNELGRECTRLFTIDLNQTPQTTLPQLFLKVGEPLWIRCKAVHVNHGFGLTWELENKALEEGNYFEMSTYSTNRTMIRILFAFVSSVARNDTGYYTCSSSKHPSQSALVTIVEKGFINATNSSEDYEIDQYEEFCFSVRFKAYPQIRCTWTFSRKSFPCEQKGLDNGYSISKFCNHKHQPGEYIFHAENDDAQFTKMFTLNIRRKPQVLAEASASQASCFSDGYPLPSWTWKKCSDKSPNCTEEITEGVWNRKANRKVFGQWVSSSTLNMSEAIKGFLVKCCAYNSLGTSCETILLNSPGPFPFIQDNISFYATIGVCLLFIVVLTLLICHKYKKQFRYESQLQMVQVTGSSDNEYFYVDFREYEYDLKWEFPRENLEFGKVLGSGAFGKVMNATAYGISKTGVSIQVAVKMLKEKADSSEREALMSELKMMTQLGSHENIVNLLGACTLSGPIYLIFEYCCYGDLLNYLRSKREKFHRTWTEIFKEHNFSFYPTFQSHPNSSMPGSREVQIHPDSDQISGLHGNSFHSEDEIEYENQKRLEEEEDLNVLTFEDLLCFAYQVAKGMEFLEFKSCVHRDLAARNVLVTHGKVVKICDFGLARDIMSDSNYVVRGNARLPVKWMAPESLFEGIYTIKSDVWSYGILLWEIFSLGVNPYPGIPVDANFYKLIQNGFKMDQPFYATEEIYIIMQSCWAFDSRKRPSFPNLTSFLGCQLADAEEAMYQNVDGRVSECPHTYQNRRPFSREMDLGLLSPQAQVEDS
Description: (§1) Binding Constant (Kd) Measurements for Small-Molecule-Kinase Interactions
(§2) By testing across a large class of protein kinases, specificity of the kinase inhibitors provided herein is also determined. The components of the assays include various human kinases expressed as fusions to T7 bacteriophage particles and immobilized ligands that bind to the ATP site of the kinases. […] If the test compound binds the kinase, it competes with the immobilized ligand and prevents binding to the solid support. […] The results are read out by quantitating the amount of fusion protein bound to the solid support, which is accomplished by either traditional phage plaque assays or by quantitative PCR (qPCR) using the phage genome as a template.

[2] = target: T2, CSF1R (Homo sapiens, UniProt P07333); test: Binding constant (Kd) measurement, phage-displayed kinase competition binding assay, CSF1R
T2 construct: made in house
T2 sequence (P07333 20-972): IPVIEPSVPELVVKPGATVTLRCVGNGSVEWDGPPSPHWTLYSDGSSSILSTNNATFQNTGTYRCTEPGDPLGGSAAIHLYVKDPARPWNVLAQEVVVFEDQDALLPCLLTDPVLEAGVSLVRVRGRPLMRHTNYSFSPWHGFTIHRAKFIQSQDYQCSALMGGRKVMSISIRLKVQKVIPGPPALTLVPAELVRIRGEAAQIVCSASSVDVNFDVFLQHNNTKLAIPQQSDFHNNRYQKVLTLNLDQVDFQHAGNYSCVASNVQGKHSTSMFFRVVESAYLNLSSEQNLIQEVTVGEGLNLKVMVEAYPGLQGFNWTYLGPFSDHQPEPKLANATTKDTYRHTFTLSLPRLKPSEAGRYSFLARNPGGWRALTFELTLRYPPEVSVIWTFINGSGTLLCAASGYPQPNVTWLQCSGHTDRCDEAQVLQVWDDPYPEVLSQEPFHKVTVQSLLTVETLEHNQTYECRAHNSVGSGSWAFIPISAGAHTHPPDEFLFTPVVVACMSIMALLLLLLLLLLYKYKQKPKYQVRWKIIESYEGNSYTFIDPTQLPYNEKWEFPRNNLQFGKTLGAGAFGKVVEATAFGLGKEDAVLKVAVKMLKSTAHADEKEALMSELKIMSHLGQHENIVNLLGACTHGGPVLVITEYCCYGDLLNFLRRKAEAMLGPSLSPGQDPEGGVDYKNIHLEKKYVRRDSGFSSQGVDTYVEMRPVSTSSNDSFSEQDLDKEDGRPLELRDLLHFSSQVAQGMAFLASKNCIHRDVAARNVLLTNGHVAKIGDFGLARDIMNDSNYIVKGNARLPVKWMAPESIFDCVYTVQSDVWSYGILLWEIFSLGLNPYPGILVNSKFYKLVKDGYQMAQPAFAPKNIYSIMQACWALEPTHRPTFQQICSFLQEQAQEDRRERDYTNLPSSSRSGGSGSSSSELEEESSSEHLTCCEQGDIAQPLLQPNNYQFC
Description: as §1, §2

[3] = tested on: MV4-11 cells; test: Cellular proliferation assay (MTS), MV4-11; assay type: cell-based; details: Homo sapiens
Excerpt: Cellular Proliferation Assay
Cancer cell viability and proliferation can be evaluated using a tetrazolium salt reduction cell-based assay. In viable cells, this colorimetric assay can measure mitochondrial reduction of a tetrazolium component (MTS) into an […] formazan product.
This cell line was used to determine the ability of the compounds provided herein to inhibit Flt3 in intact cells. The RS4-11 cell line, which expresses the wild-type (WT) receptor, is also used as a control to verify the test compound's ability to inhibit the FLT3 receptor containing the ITD mutation.
MV4-11 cells were plated at 10,000 cells per well in DMEM medium with 0.5% serum. RS4-11 cells were plated at 20,000 cells per well in RPMI with 0.5% serum. […] An aliquot from each well of the compound plate was transferred to the plated cells and then incubated @ 37° C. in 5% CO2 (for 3 days for the MV4-11 cells, 2 days for the RS4-11 cells).
MTS tetrazolium compound (Owen's reagent) was thawed in a H2O bath. 20 μl of MTS tetrazolium was added to each well of optical plate and the cells were incubated @ 37° C. in 5% CO2 for 2 hours.

[4] = target: T3, KIT (Homo sapiens, UniProt P10721); test: Binding constant (Kd) measurement, phage-displayed kinase competition binding assay, KIT
T3 construct: made in house
T3 sequence (P10721 26-976): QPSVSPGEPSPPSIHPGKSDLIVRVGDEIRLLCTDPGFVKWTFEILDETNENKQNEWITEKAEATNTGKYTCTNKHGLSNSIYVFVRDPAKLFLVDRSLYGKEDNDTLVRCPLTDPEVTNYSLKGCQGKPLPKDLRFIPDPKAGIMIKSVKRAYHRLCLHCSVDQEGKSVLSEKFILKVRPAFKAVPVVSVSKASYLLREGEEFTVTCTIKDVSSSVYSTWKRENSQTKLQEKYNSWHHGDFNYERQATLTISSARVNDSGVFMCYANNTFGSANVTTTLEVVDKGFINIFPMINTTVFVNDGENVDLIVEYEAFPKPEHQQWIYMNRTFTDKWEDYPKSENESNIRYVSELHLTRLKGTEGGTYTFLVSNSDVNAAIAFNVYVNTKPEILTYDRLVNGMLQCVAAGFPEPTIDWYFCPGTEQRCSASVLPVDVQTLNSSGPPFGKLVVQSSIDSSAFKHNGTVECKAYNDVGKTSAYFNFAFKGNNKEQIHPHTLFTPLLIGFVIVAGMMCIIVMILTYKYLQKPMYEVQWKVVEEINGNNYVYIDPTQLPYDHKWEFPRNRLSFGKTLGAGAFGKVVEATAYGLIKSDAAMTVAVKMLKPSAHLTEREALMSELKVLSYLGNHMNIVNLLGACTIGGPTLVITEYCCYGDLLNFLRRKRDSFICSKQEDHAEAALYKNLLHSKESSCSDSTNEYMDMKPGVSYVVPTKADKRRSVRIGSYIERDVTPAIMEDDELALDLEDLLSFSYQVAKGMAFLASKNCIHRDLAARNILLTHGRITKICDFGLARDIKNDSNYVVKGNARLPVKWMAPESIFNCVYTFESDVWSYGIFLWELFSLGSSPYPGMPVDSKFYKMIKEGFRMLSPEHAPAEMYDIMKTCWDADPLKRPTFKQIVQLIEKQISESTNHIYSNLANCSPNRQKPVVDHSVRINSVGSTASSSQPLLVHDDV
Description: as §1, §2

[5] = read-out: Binding Assay FLT3 Kd
[6] = MV4-11 cells, 72 hour incubation, MTS, read-out: Cellular Assay MV-proliferation IC50

Structure (SMILES)	Kd [1, 5]	Kd [2]	IC50 [3, 6]	Kd [4]	IC50 ([3]; MV4-11, 72 h, read-out: Cellular Assay MV-proliferation IC50 (nM))	Kd [1]
CC(C)(C)c1cc(NC(=O)Nc2ccc(-c3cn4c(n3)sc3cc(C(=O)O)ccc34)cc2)no1 [Compound C27, Sodium 2-{4-[3-(5-tert-butyl-isoxazol-3-yl)-ureido]-phenyl}-benzo[d]imidazo[2,1-b]thiazole-7-carboxylate]	< 10 nM	10 to 100 nM	< 10 nM	< 10 nM	–	–
CCN1CCN(Cc2ccc3c(c2)sc2nc(-c4ccc(NC(=O)Nc5cc(C(C)(C)C)on5)cc4)cn23)CC1 [Compound D9, 1-(5-tert-Butyl-isoxazol-3-yl)-3-{4-[7-(4-ethyl-piperazin-1-ylmethyl)-imidazo[2,1-b][1,3]benzothiazol-2-yl]-phenyl}-urea hydrochloride]	< 10 nM	10 to 100 nM	–	< 10 nM	< 10 nM	–
O=C(Nc1ccc(-c2cn3c(n2)sc2cc(OCCN4CCOCC4)ccc23)cc1)Nc1ccc2c(c1)OCO2 [Compound F3]	< 10 nM	> 1000 nM	–	< 10 nM	–	–
CC(C)(C)c1cc(NC(=O)Nc2ccc(-c3cn4c(n3)sc3cc(CCN5CCOCC5)ccc34)cc2)no1 [Compound D5, 1-(5-tert-Butyl-isoxazol-3-yl)-3-{4-[7-(2-morpholin-4-yl-ethyl)-imidazo[2,1-b][1,3]benzothiazol-2-yl]-phenyl}-urea hydrochloride]	–	< 10 nM	< 10 nM	< 10 nM	–	< 10 nM
CC(C)(C)c1cc(NC(=O)Nc2ccc(-c3cn4c(n3)sc3cc(CC(=O)NCCN5CCCCC5)ccc34)cc2)no1 [Compound C14, 2-(2-{4-[3-(5-tert-butyl-isoxazol-3-yl)-ureido]-phenyl}-benzo[d]imidazo[2,1-b]thiazol-7-yl)-N-(2-piperidin-1-yl-ethyl)-acetamide hydrochloride]	–	10 to 100 nM	< 10 nM	< 10 nM	–	< 10 nM
O=C(Cc1noc2ccccc12)Nc1ccc(-c2cn3c(n2)sc2cc(OCCN4CCOCC4)ccc23)cc1 [Compound E2, 2-benzo[d]isoxazol-3-yl-N-{4-[7-(2-morpholin-4-yl-ethoxy)-benzo[d]imidazo[2,1-b]thiazol-2-yl]-phenyl}-acetamide]	< 10 nM	> 1000 nM	< 10 nM	10 to 100 nM	–	–
CN1CCN(C(=O)c2ccc3c(c2)sc2nc(-c4ccc(NC(=O)Nc5cc(C(C)(C)C)on5)cc4)cn23)CC1 [Compound C25, 1-(5-tert-butyl-isoxazol-3-yl)-3-{4-[7-(4-methyl-piperazine-1-carbonyl)-imidazo[2,1-b][1,3]benzothiazol-2-yl]-phenyl}-urea hydrochloride]	–	10 to 100 nM	< 10 nM	< 10 nM	–	< 10 nM
CC(C)(C)c1cc(NC(=O)Nc2ccc(-c3cn4c(n3)sc3cc(OCCCN5CCN(S(C)(=O)=O)CC5)ccc34)cc2)no1 [Compound B10, 1-(5-tert-butyl-isoxazol-3-yl)-3-(4-{7-[3-(4-methanesulfonyl-piperazin-1-yl)-propoxy]-benzo[d]imidazo[2,1-b]thiazol-2-yl}-phenyl)-urea]	< 10 nM	10 to 100 nM	< 10 nM	10 to 100 nM	–	–
CC(C)(C)c1cc(NC(=O)Nc2ccc(-c3cn4c(n3)sc3cc(CCC(=O)NCCN5CCCC5)ccc34)cc2)no1 [Compound C11, 3-(2-{4-[3-(5-tert-butyl-isoxazol-3-yl)-ureido]-phenyl}-benzo[d]imidazo[2,1-b]thiazol-7-yl)-N-(2-pyrrolidin-1-yl-ethyl)-propionamide hydrochloride]	–	< 10 nM	< 10 nM	< 10 nM	–	< 10 nM
CC(C)(C)c1cc(NC(=O)Nc2ccc(-c3cn4c(n3)sc3cc(CC(=O)NCCN5CCOCC5)ccc34)cc2)no1 [Compound C13, 2-(2-{4-[3-(5-tert-butyl-isoxazol-3-yl)-ureido]-phenyl}-benzo[d]imidazo[2,1-b]thiazol-7-yl)-N-(2-morpholin-4-yl-ethyl)-acetamide hydrochloride]	–	10 to 100 nM	< 10 nM	< 10 nM	–	< 10 nM
CCN(CC)CCNC(=O)c1ccc2c(c1)sc1nc(-c3ccc(NC(=O)Nc4cc(C(C)(C)C)on4)cc3)cn12 [Compound C22, 2-{4-[3-(5-tert-butyl-isoxazol-3-yl)-ureido]-phenyl}-imidazo[2,1-b][1,3]benzothiazole-7-carboxylic acid (2-diethylamino-ethyl)-amide hydrochloride]	–	10 to 100 nM	< 10 nM	< 10 nM	–	< 10 nM
CC(C)(C)c1cc(NC(=O)Nc2ccc(-c3cn4c(n3)sc3ccc(OCCN5CCOCC5)cc34)cc2)no1 [Compound B12, N-(5-tert-butyl-isoxazol-3-yl)-N′-{4-[6-(2-morpholin-4-yl-ethoxy)imidazo[2,1-b][1,3]benzothiazol-2-yl]phenyl}urea hydrochloride]	< 10 nM	100 to 1000 nM	< 10 nM	10 to 100 nM	–	–
CC(C)(C)c1cc(NC(=O)Nc2ccc(-c3cn4c(n3)sc3cc(CCN5CCCCC5)ccc34)cc2)no1 [Compound D6, 1-(5-tert-Butyl-isoxazol-3-yl)-3-{4-[7-(2-piperidin-1-yl-ethyl)-imidazo[2,1-b][1,3]benzothiazol-2-yl]-phenyl}urea hydrochloride]	–	< 10 nM	< 10 nM	< 10 nM	–	< 10 nM
CC(C)(C)c1cc(NC(=O)Nc2ccc(-c3cn4c(n3)sc3cc(CCC(=O)NCCN5CCOCC5)ccc34)cc2)no1 [Compound C9, 3-(2-{4-[3-(5-tert-butyl-isoxazol-3-yl)-ureido]-phenyl}-benzo[d]imidazo[2,1-b]thiazol-7-yl)-N-(2-morpholin-4-yl-ethyl)-propionamide hydrochloride]	< 10 nM	< 10 nM	< 10 nM	< 10 nM	–	–
CCN1CCN(C(=O)CCc2ccc3c(c2)sc2nc(-c4ccc(NC(=O)Nc5cc(C(C)(C)C)on5)cc4)cn23)CC1 [Compound C5, N-(5-tert-Butyl-isoxazol-3-yl)-N′-(4-{7-[3-(4-ethyl-piperazin-1-yl)-3-oxo-propyl]imidazo[2,1-b][1,3]benzothiazol-2-yl}phenyl)urea]	< 10 nM	10 to 100 nM	< 10 nM	< 10 nM	–	–
CC(C)(C)c1cc(NC(=O)Nc2ccc(-c3cn4c(n3)sc3cc(CCC(=O)N5CCOCC5)ccc34)cc2)no1 [Compound C7, N-(5-tert-butyl-isoxazol-3-yl)-N′-{4-[7-(3-morpholino-4-yl-3-oxo-propyl)imidazo[2,1-b][1,3]benzothiazol-2-yl]phenyl}urea]	< 10 nM	10 to 100 nM	< 10 nM	< 10 nM	–	–
CC(C)(C)c1cc(NC(=O)Nc2ccc(-c3cn4c(n3)sc3cc(C(=O)NCCN5CCCCC5)ccc34)cc2)no1 [Compound C20, 2-{4-[3-(5-tert-butyl-isoxazol-3-yl)-ureido]-phenyl}-imidazo[2,1-b][1,3]benzothiazole-7-carboxylic Acid (2-Piperidin-1-yl-ethyl)-amide hydrochloride]	–	10 to 100 nM	< 10 nM	< 10 nM	–	–
